{"source": "the supplement of paper PMC10307832"}
{"compound": "CCOC1=CC=CC=C1N=NC2=C(NN(C2=O)C3=NC(=CS3)C4=CC=CC=C4)C [BAM7] + Nc1nc2[nH]cc(CCc3ccc(C(=O)N[C@@H](CCC(=O)O)C(=O)O)cc3)c2c(=O)[nH]1 [Pemetrexed] (partner 0.2 µM)", "assay": "relative viability (nuclei count vs DMSO), 5 days (fraction); higher = more cells survive", "conditions": "first compound 0.5 µM", "method_in_brief": "(§1)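 Relative viability is defined as nuclei in treated wells over nuclei in vehicle wells. Duplicate plates were run and medians reported. Lung cancer cell lines in 1536-well plates were dosed by pin tool one day after seeding, with one drug or with a fixed anchor-drug dose plus five library-drug doses (not always all listed) in √10 steps, and nuclei were counted after 5 days.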"}
{"cell line": "SW 1573", "relative viability": 0.843}
{"cell line": "NCI-H838", "relative viability": 0.293}
{"cell line": "LCLC-103H", "relative viability": 0.524}
{"cell line": "NCI-H520", "relative viability": 0.696}
{"cell line": "NCI-H2126", "relative viability": 0.746}
{"cell line": "EMC-BAC-2", "relative viability": 0.439}
{"cell line": "NCI-H2085", "relative viability": 1.02}
{"cell line": "HCC-366", "relative viability": 0.107}
{"cell line": "NCI-H1666", "relative viability": 0.919}
{"cell line": "NCI-H596", "relative viability": 0.544}
{"cell line": "NCI-H2087", "relative viability": 0.671}
{"cell line": "H3255", "relative viability": 0.578}
{"cell line": "COR-L23", "relative viability": 0.209}
{"cell line": "COR-L 105", "relative viability": 1.02}
{"cell line": "LOU-NH91", "relative viability": 0.347}
{"cell line": "ChaGo-K-1", "relative viability": 0.256}
{"cell line": "NCI-H2405", "relative viability": 1.11}
{"cell line": "HOP-62", "relative viability": 0.269}
{"cell line": "LU99A", "relative viability": 0.146}
{"cell line": "BEN", "relative viability": 0.74}
{"cell line": "HARA", "relative viability": 0.228}
{"cell line": "HCC-78", "relative viability": 0.929}
{"cell line": "NCI-H322M", "relative viability": 0.622}
{"cell line": "LCLC-97TM1", "relative viability": 0.19}
{"cell line": "NCI-H2009", "relative viability": 1.03}
{"cell line": "A-427", "relative viability": 1.02}
{"cell line": "NCI-H441", "relative viability": 0.299}
{"cell line": "NCI-H661", "relative viability": 0.949}
{"cell line": "NCI-H1734", "relative viability": 0.437}
{"cell line": "NCI-H460", "relative viability": 0.0639}
{"cell line": "NCI-H2347", "relative viability": 0.426}
{"cell line": "SK-LU-1", "relative viability": 0.906}
{"cell line": "201T", "relative viability": 0.299}
{"cell line": "NCI-H1915", "relative viability": 0.425}
{"compound": "CCOC1=CC=CC=C1N=NC2=C(NN(C2=O)C3=NC(=CS3)C4=CC=CC=C4)C [BAM7] + Nc1nc2[nH]cc(CCc3ccc(C(=O)N[C@@H](CCC(=O)O)C(=O)O)cc3)c2c(=O)[nH]1 [Pemetrexed] (partner 0.2 µM)", "assay": "relative viability (nuclei count vs DMSO), 5 days (fraction); higher = more cells survive", "conditions": "first compound 5 µM", "method_in_brief": "as §1"}
{"cell line": "SW 1573", "relative viability": 0.822}
{"cell line": "NCI-H838", "relative viability": 0.259}
{"cell line": "LCLC-103H", "relative viability": 0.491}
{"cell line": "NCI-H520", "relative viability": 0.776}
{"cell line": "NCI-H2126", "relative viability": 0.672}
{"cell line": "EMC-BAC-2", "relative viability": 0.458}
{"cell line": "NCI-H2085", "relative viability": 0.675}
{"cell line": "HCC-366", "relative viability": 0.117}
{"cell line": "NCI-H1666", "relative viability": 0.846}
{"cell line": "NCI-H596", "relative viability": 0.498}
{"cell line": "NCI-H2087", "relative viability": 0.627}
{"cell line": "H3255", "relative viability": 0.543}
{"cell line": "COR-L23", "relative viability": 0.182}
{"cell line": "COR-L 105", "relative viability": 1.31}
{"cell line": "LOU-NH91", "relative viability": 0.436}
{"cell line": "ChaGo-K-1", "relative viability": 0.257}
{"cell line": "NCI-H2405", "relative viability": 1.06}
{"cell line": "HOP-62", "relative viability": 0.356}
{"cell line": "LU99A", "relative viability": 0.18}
{"cell line": "BEN", "relative viability": 0.88}
{"cell line": "HARA", "relative viability": 0.244}
{"cell line": "HCC-78", "relative viability": 0.913}
{"cell line": "NCI-H322M", "relative viability": 0.64}
{"cell line": "LCLC-97TM1", "relative viability": 0.147}
{"cell line": "NCI-H2009", "relative viability": 1.06}
{"cell line": "A-427", "relative viability": 0.935}
{"cell line": "NCI-H441", "relative viability": 0.252}
{"cell line": "NCI-H661", "relative viability": 0.973}
{"cell line": "NCI-H1734", "relative viability": 0.415}
{"cell line": "NCI-H460", "relative viability": 0.0614}
{"cell line": "NCI-H2347", "relative viability": 0.424}
{"cell line": "SK-LU-1", "relative viability": 1.07}
{"cell line": "201T", "relative viability": 0.324}
{"cell line": "NCI-H1915", "relative viability": 0.505}
{"compound": "CCOC1=CC=CC=C1N=NC2=C(NN(C2=O)C3=NC(=CS3)C4=CC=CC=C4)C [BAM7] + Nc1nc2[nH]cc(CCc3ccc(C(=O)N[C@@H](CCC(=O)O)C(=O)O)cc3)c2c(=O)[nH]1 [Pemetrexed] (partner 0.2 µM)", "assay": "relative viability (nuclei count vs DMSO), 5 days (fraction); higher = more cells survive", "conditions": "first compound 15.81 µM", "method_in_brief": "as §1"}
{"cell line": "SW 1573", "relative viability": 0.801}
{"cell line": "NCI-H838", "relative viability": 0.249}
{"cell line": "LCLC-103H", "relative viability": 0.487}
{"cell line": "NCI-H520", "relative viability": 0.626}
{"cell line": "NCI-H2126", "relative viability": 0.574}
{"cell line": "EMC-BAC-2", "relative viability": 0.474}
{"cell line": "NCI-H2085", "relative viability": 0.844}
{"cell line": "HCC-366", "relative viability": 0.125}
{"cell line": "NCI-H1666", "relative viability": 0.82}
{"cell line": "NCI-H596", "relative viability": 0.452}
{"cell line": "NCI-H2087", "relative viability": 0.653}
{"cell line": "H3255", "relative viability": 0.548}
{"cell line": "COR-L23", "relative viability": 0.193}
{"cell line": "COR-L 105", "relative viability": 1.01}
{"cell line": "LOU-NH91", "relative viability": 0.392}
{"cell line": "ChaGo-K-1", "relative viability": 0.249}
{"cell line": "NCI-H2405", "relative viability": 1.09}
{"cell line": "HOP-62", "relative viability": 0.328}
{"cell line": "LU99A", "relative viability": 0.173}
{"cell line": "BEN", "relative viability": 0.98}
{"cell line": "HARA", "relative viability": 0.222}
{"cell line": "HCC-78", "relative viability": 0.963}
{"cell line": "NCI-H322M", "relative viability": 0.645}
{"cell line": "NCI-H2009", "relative viability": 1.03}
{"cell line": "A-427", "relative viability": 0.93}
{"cell line": "NCI-H441", "relative viability": 0.277}
{"cell line": "NCI-H661", "relative viability": 0.921}
{"cell line": "NCI-H1734", "relative viability": 0.382}
{"cell line": "NCI-H460", "relative viability": 0.0597}
{"cell line": "NCI-H2347", "relative viability": 0.422}
{"cell line": "SK-LU-1", "relative viability": 0.905}
{"cell line": "201T", "relative viability": 0.327}
{"cell line": "NCI-H1915", "relative viability": 0.524}
{"compound": "CCOC1=CC=CC=C1N=NC2=C(NN(C2=O)C3=NC(=CS3)C4=CC=CC=C4)C [BAM7] + Nc1nc2[nH]cc(CCc3ccc(C(=O)N[C@@H](CCC(=O)O)C(=O)O)cc3)c2c(=O)[nH]1 [Pemetrexed] (partner 0.2 µM)", "assay": "relative viability (nuclei count vs DMSO), 5 days (fraction); higher = more cells survive", "conditions": "first compound 50 µM", "method_in_brief": "as §1"}
{"cell line": "SW 1573", "relative viability": 0.823}
{"cell line": "NCI-H838", "relative viability": 0.231}
{"cell line": "LCLC-103H", "relative viability": 0.444}
{"cell line": "NCI-H520", "relative viability": 0.569}
{"cell line": "NCI-H2126", "relative viability": 0.641}
{"cell line": "EMC-BAC-2", "relative viability": 0.452}
{"cell line": "NCI-H2085", "relative viability": 0.992}
{"cell line": "HCC-366", "relative viability": 0.115}
{"cell line": "NCI-H1666", "relative viability": 0.82}
{"cell line": "NCI-H596", "relative viability": 0.559}
{"cell line": "NCI-H2087", "relative viability": 0.646}
{"cell line": "H3255", "relative viability": 0.545}
{"cell line": "COR-L23", "relative viability": 0.206}
{"cell line": "COR-L 105", "relative viability": 1.15}
{"cell line": "LOU-NH91", "relative viability": 0.346}
{"cell line": "ChaGo-K-1", "relative viability": 0.272}
{"cell line": "NCI-H2405", "relative viability": 1.11}
{"cell line": "HOP-62", "relative viability": 0.371}
{"cell line": "LU99A", "relative viability": 0.198}
{"cell line": "BEN", "relative viability": 1}
{"cell line": "HARA", "relative viability": 0.292}
{"cell line": "HCC-78", "relative viability": 0.863}
{"cell line": "NCI-H322M", "relative viability": 0.582}
{"cell line": "LCLC-97TM1", "relative viability": 0.159}
{"cell line": "NCI-H2009", "relative viability": 1.01}
{"cell line": "A-427", "relative viability": 1.04}
{"cell line": "NCI-H441", "relative viability": 0.242}
{"cell line": "NCI-H661", "relative viability": 0.917}
{"cell line": "NCI-H1734", "relative viability": 0.411}
{"cell line": "NCI-H460", "relative viability": 0.0573}
{"cell line": "NCI-H2347", "relative viability": 0.415}
{"cell line": "SK-LU-1", "relative viability": 0.99}
{"cell line": "201T", "relative viability": 0.313}
{"cell line": "NCI-H1915", "relative viability": 0.46}
{"compound": "CCn1c(-c2nonc2N)nc2c(C#CC(C)(C)O)ncc(OC[C@H]3CCCNC3)c21 + CC(C)C[C@H](NC(=O)[C@H](Cc1ccccc1)NC(=O)c1cnccn1)B(O)O [Bortezomib] (partner 0.002 µM)", "assay": "relative viability (nuclei count vs DMSO), 5 days (fraction); higher = more cells survive", "conditions": "first compound 0.01 µM", "method_in_brief": "as §1"}
{"cell line": "SW 1573", "relative viability": 0.993}
{"cell line": "NCI-H838", "relative viability": 1.25}
{"cell line": "LCLC-103H", "relative viability": 1.02}
{"cell line": "NCI-H520", "relative viability": 0.79}
{"cell line": "NCI-H2126", "relative viability": 1.05}
{"cell line": "EMC-BAC-2", "relative viability": 1.02}
{"cell line": "NCI-H2085", "relative viability": 0.861}
{"cell line": "HCC-366", "relative viability": 0.989}
{"cell line": "NCI-H1666", "relative viability": 0.688}
{"cell line": "NCI-H596", "relative viability": 1.02}
{"cell line": "NCI-H2087", "relative viability": 0.682}
{"cell line": "H3255", "relative viability": 0.634}
{"cell line": "COR-L23", "relative viability": 1.01}
{"cell line": "COR-L 105", "relative viability": 0.82}
{"cell line": "LOU-NH91", "relative viability": 0.57}
{"cell line": "ChaGo-K-1", "relative viability": 0.972}
{"cell line": "NCI-H2405", "relative viability": 0.982}
{"cell line": "HOP-62", "relative viability": 0.623}
{"cell line": "LU99A", "relative viability": 1.21}
{"cell line": "BEN", "relative viability": 0.713}
{"cell line": "HARA", "relative viability": 1.1}
{"cell line": "HCC-78", "relative viability": 0.553}
{"cell line": "NCI-H322M", "relative viability": 1.21}
{"cell line": "LCLC-97TM1", "relative viability": 0.756}
{"cell line": "NCI-H2009", "relative viability": 0.997}
